Laboratory results as given in patent publication US12668845B2, “Methods for predicting drug responsiveness in cancer patients” (Allarity Therapeutics Europe ApS, priority 2018, dated 2026).

Assays:
[1] = test system: Pfeiffer; assay: Growth inhibition of cell lines treated with 2X-121; assay type: cell-based; conditions: Homo sapiens; cell line Pfeiffer, origin DLBCL (GC); read-out: Measured growth inhibition IC50
[2] = test system: Hs578T; assay: as above; assay type: cell-based; conditions: Homo sapiens, Hs-578T; cell line Hs578T, origin Breast; read-out: Measured growth inhibition IC50
[3] = test system: U266; assay: as above; assay type: cell-based; conditions: Homo sapiens, U-266; cell line U266, origin Myeloma; read-out: Measured growth inhibition IC50
[4] = test system: Jeko-1; assay: as above; assay type: cell-based; conditions: Homo sapiens; cell line Jeko-1, origin MCL; read-out: Measured growth inhibition IC50
[5] = test system: HEC-6; assay: as above; assay type: cell-based; conditions: cell line HEC-6, origin Endometrial; read-out: Measured growth inhibition IC50
[6] = test system: P-glycoprotein expressing cells; conditions: cited from earlier work
[7] = test system: NCI-H211; assay: Growth inhibition of cell lines treated with 2X-121; assay type: cell-based; conditions: Homo sapiens; cell line NCI-H211, origin SCLC; read-out: Measured growth inhibition IC50
[8] = test system: SR; assay: as above; assay type: cell-based; conditions: Homo sapiens; cell line SR, origin B cell lymphoma; read-out: Measured growth inhibition IC50
[9] = test system: tumor; assay: Phase I trial of 2X-121 (NCT01618136), clinical response; assay type: in vivo, human; design: key to RECIST: SD = stable disease; PD = progressive disease; PR = partial response
Protocol: A Phase I trial of 2X-121 was conducted in the UK (clinicaltrial.gov number NCT01618136). 2X-121 was administered as daily oral doses of 50-800 mg. Of 41 patients enrolled in the Phase I trial, 35 had response assessment. Of these, 2 had partial response (PR) (5% overall response rate (ORR)) and 13 had stable disease (SD). Biopsies and BRCA analysis were voluntary and available from 16, and 7 patients, respectively.
Of the 16 patients with biopsies, 13 passed our quality control (QC) in the lab and were assayed on the Affymetrix HG-U133Plus2 array.
A statistical analysis plan was completed before initiation of blinded prediction of 2X-121 sensitivity on the 13 samples. In this analysis, the difference of the mean expression of genes in Table 3 were subtracted from the mean expression of genes in Table 2 for each patient to determine a difference score. This score was compared to a reference population of 819 breast cancer patients to convert the difference score to a percentile score. The percentile score is shown in Table 4 as “DRP score” and used for FIGS. 3 and 4, and Tables 5 and 6.

[10] = in vivo; cited from earlier work
[11] = test system: HCC1806; assay: Growth inhibition of cell lines treated with 2X-121; assay type: cell-based; conditions: Homo sapiens; cell line HCC1806, origin Breast; read-out: Measured growth inhibition IC50
[12] = test system: HEC-88nu; assay: as above; assay type: cell-based; conditions: cell line HEC-88nu, origin Endometrial; read-out: Measured growth inhibition IC50
[13] = test system: U937; assay: as above; assay type: cell-based; conditions: Homo sapiens, U-937; cell line U937, origin Histiocytic lymphoma-monocytic; read-out: Measured growth inhibition IC50
[14] = test system: Toledo; assay: as above; assay type: cell-based; conditions: Homo sapiens; cell line Toledo, origin DLBCL (GC); read-out: Measured growth inhibition IC50
[15] = test system: RPMI-8226; assay: as above; assay type: cell-based; conditions: Homo sapiens; cell line RPMI-8226, origin Myeloma; read-out: Measured growth inhibition IC50
[16] = test system: Namalwa; assay: as above; assay type: cell-based; conditions: cell line Namalwa, origin Burkitts lymphoma; read-out: Measured growth inhibition IC50
[17] = test system: SNG-M; assay: as above; assay type: cell-based; conditions: cell line SNG-M, origin Endometrial; read-out: Measured growth inhibition IC50
[18] = test system: NCI-H69; assay: as above; assay type: cell-based; conditions: Homo sapiens; cell line NCI-H69, origin SCLC; read-out: Measured growth inhibition IC50
[19] = Patient 1, tumor pancreas, 2X-121 dose 600 mg
[20] = Patient 2, tumor mesothelioma, 2X-121 dose 200 mg
[21] = Patient 3, tumor pancreas, 2X-121 dose 600 mg
[22] = Patient 4, tumor intestine, 2X-121 dose 600 mg
[23] = Patient 5, tumor ovary, 2X-121 dose 600 mg
[24] = Patient 6, tumor lung, 2X-121 dose 50 mg
[25] = Patient 7, tumor pancreas, 2X-121 dose 50 mg
[26] = Patient 8, tumor adrenal, 2X-121 dose 400 mg
[27] = Patient 9, tumor kidney, 2X-121 dose 400 mg
[28] = Patient 10, tumor ovary, 2X-121 dose 800 mg
[29] = Patient 11, tumor ovary, 2X-121 dose 800 mg
[30] = Patient 12, tumor pancreas, 2X-121 dose 600 mg
[31] = Patient 13, tumor gallbladder, 2X-121 dose 600 mg
[32] = predicted resistant group (below DRP cutoff 50, N=7)

O=c1[nH]nc2c3c(cccc13)N=C(CN1Cc3ccccc3C1)N2 [2X-121, 8-(isoindolin-2-ylmethyl)-2,9-dihydro-3H-pyridazino[3,4,5-de]quinazolin-3-one]
IC50 [1]: 710 nM
IC50 [2]: 9600 nM
IC50 [3]: 6700 nM
IC50 [4]: 1900 nM
IC50 [5]: 1880 nM
activity in P-glycoprotein expressing cells [6]: active
IC50 [7]: 480 nM
IC50 [8]: 260 nM
response rate ([9]; BRCA mutated population, 1 of 6 responded): 16%
TimeOS ([9]; Patient 1, tumor pancreas, 600 mg, StatusOS Death): 208 days
TimePFS ([9]; Patient 1, tumor pancreas, 600 mg, StatusPFS censored): 42 days
Diameter (%), change from baseline [9, 19]: −10%
RECIST [9, 19]: SD
TimeOS ([9]; Patient 2, tumor mesothelioma, 200 mg, StatusOS Death): 167 days
TimePFS ([9]; Patient 2, tumor mesothelioma, 200 mg, StatusPFS Progression): 50 days
Diameter (%), change from baseline [9, 20]: 1%
RECIST [9, 20]: PD
TimeOS ([9]; Patient 3, tumor pancreas, 600 mg, StatusOS censored): 406 days
TimePFS ([9]; Patient 3, tumor pancreas, 600 mg, StatusPFS censored): 321 days
Diameter (%), change from baseline [9, 21]: −22%
RECIST [9, 21]: SD
TimeOS ([9]; Patient 4, tumor intestine, 600 mg, StatusOS Death): 120 days
TimePFS ([9]; Patient 4, tumor intestine, 600 mg, StatusPFS Progression): 59 days
Diameter (%), change from baseline [9, 22]: 23%
RECIST [9, 22]: PD
TimeOS ([9]; Patient 5, tumor ovary, 600 mg, StatusOS censored): 379 days
TimePFS ([9]; Patient 5, tumor ovary, 600 mg, StatusPFS Progression): 331 days
Diameter (%), change from baseline [9, 23]: −83%
RECIST [9, 23]: PR
TimeOS ([9]; Patient 6, tumor lung, 50 mg, StatusOS censored): 466 days
TimePFS ([9]; Patient 6, tumor lung, 50 mg, StatusPFS Progression): 155 days
Diameter (%), change from baseline [9, 24]: 5%
RECIST [9, 24]: SD
TimeOS ([9]; Patient 7, tumor pancreas, 50 mg, StatusOS Death): 335 days
TimePFS ([9]; Patient 7, tumor pancreas, 50 mg, StatusPFS censored): 262 days
Diameter (%), change from baseline [9, 25]: 3%
RECIST [9, 25]: SD
TimeOS ([9]; Patient 8, tumor adrenal, 400 mg, StatusOS Death): 190 days
TimePFS ([9]; Patient 8, tumor adrenal, 400 mg, StatusPFS Progression): 50 days
Diameter (%), change from baseline [9, 26]: 40%
RECIST [9, 26]: PD
TimeOS ([9]; Patient 9, tumor kidney, 400 mg, StatusOS censored): 865 days
TimePFS ([9]; Patient 9, tumor kidney, 400 mg, StatusPFS Progression): 276 days
Diameter (%), change from baseline [9, 27]: −2%
RECIST [9, 27]: SD
TimeOS ([9]; Patient 10, tumor ovary, 800 mg, StatusOS Death): 301 days
TimePFS ([9]; Patient 10, tumor ovary, 800 mg, StatusPFS Progression): 50 days
Diameter (%), change from baseline [9, 28]: 26%
RECIST [9, 28]: PD
TimeOS ([9]; Patient 11, tumor ovary, 800 mg, StatusOS censored): 715 days
TimePFS ([9]; Patient 11, tumor ovary, 800 mg, StatusPFS Progression): 315 days
Diameter (%), change from baseline [9, 29]: −46%
RECIST [9, 29]: PR
TimeOS ([9]; Patient 12, tumor pancreas, 600 mg, StatusOS Death): 257 days
TimePFS ([9]; Patient 12, tumor pancreas, 600 mg, StatusPFS Progression): 189 days
Diameter (%), change from baseline [9, 30]: −7%
RECIST [9, 30]: SD
TimeOS ([9]; Patient 13, tumor gallbladder, 600 mg, StatusOS Death): 121 days
TimePFS ([9]; Patient 13, tumor gallbladder, 600 mg, StatusPFS Progression): 41 days
Diameter (%), change from baseline [9, 31]: 3%
RECIST [9, 31]: PD
patients with partial response (PR) ([9]; Phase I, daily oral 50-800 mg, of 35 patients with response assessment): 2
overall response rate (ORR) ([9]; Phase I, daily oral doses of 50-800 mg, 41 enrolled, 35 with response assessment): 5%
hazard ratio, progression-free survival (PFS) ([9]; above DRP cutoff of 50 (N=6) vs below (N=7), P=0.2 one-sided): 0.59
hazard ratio, overall survival (OS) ([9]; above dose-adjusted DRP cutoff of 50 (N=6) vs below (N=7), P=0.04 one sided): 0.26
response rate ([9]; all 13 patients analyzed with DRP (cutoff 0, 100% of population), 2/13): 15%
response rate ([9]; patients above dose-adjusted DRP cutoff of 50, 2/6): 33%
median PFS [9, 32]: 155 days
median survival [9, 32]: 208 days
median PFS ([9]; predicted sensitive group (above DRP cutoff 50, N=6)): 296 days
brain penetration [10]: brain penetrable
IC50 [11]: 1800 nM
IC50 [12]: 1140 nM
IC50 [13]: 2700 nM
IC50 [14]: 1600 nM
IC50 [15]: 9300 nM
IC50 [16]: 2500 nM
IC50 [17]: 1360 nM
IC50 [18]: 1330 nM
